Where two headings read alike, the source gives them in different places.
Columns and labels:
[1] = system: CHO subline engineered to express human FRα (RT16); test: Growth inhibition assay, CHO subline RT16 expressing FRα; type: cell-based; details: read-out: IC50 RT16, FR
[2] = system: CHO subline engineered to express human PCFT (R2/PCFT4); test: Growth inhibition assay, CHO subline R2/PCFT4 expressing PCFT; type: cell-based; details: R2/PCFT4 cells
[3] = system: CHO subline engineered to express human RFC (PC43-10); test: Growth inhibition assay, CHO subline PC43-10 expressing human RFC; type: cell-based
[4] = biological target: AICARFTase (Homo sapiens, UniProt P31939); details: reported in reference 1; cited from earlier work
[5] = biological target: T1, GARFTase (Homo sapiens, UniProt P22102); details: reported in reference 1; cited from earlier work
T1 sequence (P22102 1-1010): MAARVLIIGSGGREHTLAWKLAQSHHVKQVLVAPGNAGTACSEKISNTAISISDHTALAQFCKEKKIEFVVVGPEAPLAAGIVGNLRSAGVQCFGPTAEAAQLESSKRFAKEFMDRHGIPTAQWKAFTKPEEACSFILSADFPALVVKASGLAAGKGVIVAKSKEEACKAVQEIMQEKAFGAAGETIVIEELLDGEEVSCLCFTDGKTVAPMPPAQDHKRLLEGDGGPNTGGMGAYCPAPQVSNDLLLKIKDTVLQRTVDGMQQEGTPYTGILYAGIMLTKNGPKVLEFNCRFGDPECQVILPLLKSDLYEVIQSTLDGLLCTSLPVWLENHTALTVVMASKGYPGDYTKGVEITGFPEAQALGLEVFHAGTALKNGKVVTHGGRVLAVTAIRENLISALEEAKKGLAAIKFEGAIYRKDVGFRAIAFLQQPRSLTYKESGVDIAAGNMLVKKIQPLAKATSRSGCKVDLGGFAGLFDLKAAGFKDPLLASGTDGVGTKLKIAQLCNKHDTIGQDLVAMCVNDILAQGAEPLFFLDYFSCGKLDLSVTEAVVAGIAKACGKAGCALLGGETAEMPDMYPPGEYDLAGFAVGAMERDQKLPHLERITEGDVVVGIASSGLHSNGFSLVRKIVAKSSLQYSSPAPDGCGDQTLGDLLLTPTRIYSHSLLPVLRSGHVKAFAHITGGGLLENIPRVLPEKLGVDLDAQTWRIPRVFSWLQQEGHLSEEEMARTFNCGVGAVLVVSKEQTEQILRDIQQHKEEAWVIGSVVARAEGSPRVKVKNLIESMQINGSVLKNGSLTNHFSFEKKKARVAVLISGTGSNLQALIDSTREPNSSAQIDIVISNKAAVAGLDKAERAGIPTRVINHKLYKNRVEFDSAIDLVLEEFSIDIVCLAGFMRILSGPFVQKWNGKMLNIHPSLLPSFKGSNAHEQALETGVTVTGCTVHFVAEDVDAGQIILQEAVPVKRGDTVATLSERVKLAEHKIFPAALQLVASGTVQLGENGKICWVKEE

[6] = system: KB human tumor subline (expressing RFC, FRα, and PCFT); test: Growth inhibition assay, KB human tumor subline; type: cell-based
[7] = system: transporter-null (R2) CHO cells; test: Growth inhibition assay, transporter-null R2 CHO cells; type: cell-based; details: Cricetulus griseus, Table 1, mean of 3 to 10 experiments
[8] = Table 1, growth inhibition by 50% relative to cells without drug, mean of 3 to 10 experiments

Chain of AICARFTase (P31939 whole entry): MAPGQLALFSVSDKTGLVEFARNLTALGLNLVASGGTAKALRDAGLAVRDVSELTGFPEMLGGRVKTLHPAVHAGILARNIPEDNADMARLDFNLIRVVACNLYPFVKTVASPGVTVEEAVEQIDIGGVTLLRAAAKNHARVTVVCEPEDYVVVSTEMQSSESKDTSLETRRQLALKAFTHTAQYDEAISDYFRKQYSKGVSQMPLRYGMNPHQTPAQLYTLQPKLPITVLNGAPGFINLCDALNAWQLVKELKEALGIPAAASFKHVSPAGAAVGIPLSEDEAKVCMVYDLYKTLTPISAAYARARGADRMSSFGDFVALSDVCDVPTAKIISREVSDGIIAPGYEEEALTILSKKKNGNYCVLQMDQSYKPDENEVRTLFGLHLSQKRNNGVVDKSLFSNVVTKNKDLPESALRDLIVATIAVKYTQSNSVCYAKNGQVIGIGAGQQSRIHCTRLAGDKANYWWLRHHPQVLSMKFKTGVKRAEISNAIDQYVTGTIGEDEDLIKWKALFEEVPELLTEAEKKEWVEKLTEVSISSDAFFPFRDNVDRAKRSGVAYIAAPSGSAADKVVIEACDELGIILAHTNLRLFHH

SMILES | IC50 [1, 8] [nM] | IC50 ([1]; Table 2) [nM] | IC50 ([2]; Table 1, mean of 3 to 10 experiments) [nM] | IC50 ([2]; Table 2) [nM] | IC50 [3, 8] [nM] | IC50 ([3]; Table 2) [nM] | inhibition of AICARFTase [4] | inhibition of GARFTase [5] | IC50 [6, 8] [nM] | IC50 ([6]; Table 2) [nM] | IC50 [7] [nM]
Nc1nc2[nH]cc(CCCCc3ccc(C(=O)N[C@@H](CCC(=O)O)C(=O)O)cc3)c2c(=O)[nH]1 [Compound 3] | 8.6 | 8.6 | 840 | 840 | 56.6 | 56.6 | inhibited | inhibited | 12.7 | 12.7 | –
Nc1nc2[nH]cc(CCCOc3ccc(C(=O)N[C@@H](CCC(=O)O)C(=O)O)cc3)c2c(=O)[nH]1 [Compound 9] | – | 42.2 | – | 390 | – | 53.2 | – | – | – | 51 | –
Nc1nc2[nH]cc(CCCSc3ccc(C(=O)N[C@@H](CCC(=O)O)C(=O)O)cc3)c2c(=O)[nH]1 [Compound 10] | – | 281 | – | 549 | – | > 1000 | – | – | – | > 1000 | –
Nc1nc2[nH]cc(CCCCc3cccc(C(=O)N[C@@H](CCC(=O)O)C(=O)O)c3)c2c(=O)[nH]1 [Compound 11] | – | > 1000 | – | > 1000 | – | 608 | – | – | – | > 1000 | –
Nc1nc2[nH]cc(CCc3ccc(C(=O)N[C@@H](CCC(=O)O)C(=O)O)cc3)c2c(=O)[nH]1 [PMX, Pemetrexed] | – | – | – | – | – | 30.6 | – | – | – | 9.94 | > 1000
